We go through 27 compounds from patent publication US5753660A, “Substituted sulfonylalkanoylamino hydroxyethylamino sulfonamide retroviral protease inhibitors” (G. D. Searle & Co., priority 1996, dated 1998).

Structures are written as SMILES.

For one assay, the system named is HIV-1. The experiment in a line: HIV inhibition assay in acutely infected CEM cells (tetrazolium/MTT based). As to conditions: Human immunodeficiency virus 1, CCRF-CEM, 168 h, HIV-1 1000 TCID50, MTT, 7 days. It is filed as cell-based. On the procedure:
The effectiveness of various compounds were determined in the above-described enzyme assay and in a CEM cell assay.
The HIV inhibition assay method of acutely infected cells is an automated tetrazolium based calorimetric assay essentially that reported by Pauwles et al, J. Virol. Methods, 20, 309-321 (1988). Assays were performed in 96-well tissue culture plates. CEM cells, a CD4+ cell line, were grown in RPMI-1640 medium (Gibco) supplemented with a 10% fetal calf serum and were then treated with polybrene (2 μug/ml). An 80 μl volume of medium containing 1×10^4 cells was dispensed into each well of the tissue culture plate. To each well was added a 100 μl volume of test compound dissolved in tissue culture medium (or medium without test compound as a control) to achieve the desired final concentration and the cells were incubated at 37° C. for 1 hour. A frozen culture of HIV-1 was diluted in culture medium to a concentration of 5×10^4 TCID50 per ml (TCID50 =the dose of virus that infects 50% of cells in tissue culture), and a 20 μl volume of the virus sample (containing 1000 TCID50 of virus) was added to wells containing test compound and to wells containing only medium (infected control cells). Several wells received culture medium without virus (uninfected control cells). Likewise, the intrinsic toxicity of the test compound was determined by adding medium without virus to several wells containing test compound. In summary, the tissue culture plates contained the following experiments:
In experiments 2 and 4 the final concentrations of test compounds were 1, 10, 100 and 500 μg/ml. Either azidothymidine (AZT) or dideoxyinosine (ddI) was included as a positive drug control. […] DMSO was added to all control wells at an appropriate concentration.
Following the addition of virus, cells were incubated at 37° C. in a humidified, 5% CO2 atmosphere for 7 days. Test compounds could be added on days 0, 2 and 5 if desired. On day 7,post-infection, the cells in each well were resuspended and a 100 μl sample of each cell suspension was removed for assay. A 20 μL volume of a 5 mg/ml solution of 3-(4,5-dimethylthiazol-2-yl)-2,5-diphenyltetrazolium bromide (MTT) was added to each 100 μL cell suspension, and the cells were incubated for 4 hours at […] in a 5% CO2 environment. […] To each sample was added 100 μl of 10% sodium dodecylsulfate in 0.01N HC1 to lyse the cells, and samples were incubated overnight. The absorbance at 590 nm was determined for each sample using a Molecular Devices microplate reader. Absorbance values for each set of wells is compared to assess viral control infection, uninfected control cell response as well as test compound by cytotoxicity and antiviral efficacy.

The next assay deals with T1, HIV protease (Human immunodeficiency virus type 1 group M subtype B, UniProt P04585).
T1 construct: HIV protease is diluted in the assay buffer to a final enzyme concentration of 12.3 nanomolar, based on a molecular weight of 10,780
The experiment in a line: HIV protease enzyme assay. It is filed as biochemical. To be noted: HIV protease 12.3 nanomolar; substrate 80 μM; pH 6.4; ambient temperature. The source says: The compounds of the present invention are effective HIV protease inhibitors. Utilizing an enzyme assay as described below, the compounds set forth in the examples herein disclosed inhibited the HIV enzyme. The preferred compounds of the present invention and their calculated IC50 (inhibiting concentration 50%, i.e., the concentration at which the inhibitor compound reduces enzyme activity by 50%) values are shown in Table 14. The enzyme method is described below. The substrate is 2-Ile-Nle-Phe(p-NO2)-Gln-ArgNH2. The positive control is MVT-101 (Miller, M. et al, Science, 246, 1149 (1989)] The assay conditions are as follows:
Assay buffer: 20 mM sodium phosphate, pH 6.4
The above described substrate is dissolved in DMSO, then diluted 10 fold in assay buffer. Final substrate concentration in the assay is 80 μM. HIV protease is diluted in the assay buffer to a final enzyme concentration of 12.3 nanomolar, based on a molecular weight of 10,780.
The final concentration of DMSO is 14% and the final concentration of glycerol is 18%. The test compound is dissolved in DMSO and diluted in DMSO to 10×the test concentration; 10 μl of the enzyme preparation is added, the materials mixed and then the mixture is incubated at ambient temperature for 15 minutes. The enzyme reaction is initiated by the addition of 40 μl of substrate. The increase in fluorescence is monitored at 4 time points (0, 8, 16 and 24 minutes) at ambient temperature. Each assay is carried out in duplicate wells.

In the assay on HIV-1, `CC(C)CN(C[C@@H](O)[C@H](Cc1ccccc1)NC(=O)[C@H](C)CS(=O)(=O)CCc1ccccn1)S(=O)(=O)c1ccc2c(c1)OCO2` showed an EC50 of 6 nM. On HIV protease, this compound gave an IC50 of 3 nM.
`CC(C)CN(C[C@@H](O)[C@H](Cc1ccccc1)NC(=O)[C@H](C)CS(=O)(=O)CC(=O)NCC[N+]1([O-])CCCC1)S(=O)(=O)c1ccc2c(c1)OCO2` [Example 2] registered an IC50 against HIV protease of 10 nM.
The compound `CC(C)CN(C[C@@H](O)[C@H](Cc1ccccc1)NC(=O)[C@H](C)CS(=O)(=O)CCC(=O)N1CCN(C(=O)OC(C)(C)C)CC1)S(=O)(=O)c1ccc2c(c1)OCO2` [Example 3] returned an IC50 at HIV protease of 4 nM.
Consider `CC(C)CN(C[C@@H](O)[C@H](Cc1ccccc1)NC(=O)[C@H](C)CS(=O)(=O)CCC(=O)N1CCNCC1)S(=O)(=O)c1ccc2c(c1)OCO2` [Example 4], for which half-maximal inhibition against HIV protease (IC50) required 4 nM.
For the compound `CC(C)CN(C[C@@H](O)[C@H](Cc1ccccc1)NC(=O)[C@H](C)CS(=O)(=O)CC(=O)NCC[N+]1([O-])CCOCC1)S(=O)(=O)c1ccc2c(c1)OCO2` [Example 5], at HIV protease, the half-maximal inhibitory concentration (IC50) is 10 nM.
`CC(C)CN(C[C@@H](O)[C@H](Cc1ccccc1)NC(=O)[C@H](C)CS(=O)(=O)CCC(=O)N1CCOCC1)S(=O)(=O)c1ccc2c(c1)OCO2` [Example 6] showed an EC50 in the assay on HIV-1 of 123 nM. The compound also returned an IC50 against HIV protease of 24 nM.
In turn, `CC(C)CN(C[C@@H](O)[C@H](Cc1ccccc1)NC(=O)[C@H](C)CS(=O)(=O)CC(=O)N1CCN(C(=O)OC(C)(C)C)CC1)S(=O)(=O)c1ccc2c(c1)OCO2` [Example 7] came in with an IC50 against HIV protease of 7 nM.
For the compound `CC(C)CN(C[C@@H](O)[C@H](Cc1ccccc1)NC(=O)[C@H](C)CS(=O)(=O)CC(=O)N1CCNCC1)S(=O)(=O)c1ccc2c(c1)OCO2` [Example 8], the IC50 against HIV protease was determined as 27 nM.
In the assay on HIV-1, `CC(C)CN(C[C@@H](O)[C@H](Cc1ccccc1)NC(=O)[C@H](C)CS(=O)(=O)CC(=O)c1ccccc1)S(=O)(=O)c1ccc2c(c1)OCO2` [Example 9] registered an EC50 of 39 nM. Moreover, at HIV protease, the midpoint of inhibition, the IC50, lay at 4 nM.
On HIV protease, `CC(C)CN(C[C@@H](O)[C@H](Cc1ccccc1)NC(=O)[C@H](C)CS(=O)(=O)CC(=O)N1CCS(=O)(=O)CC1)S(=O)(=O)c1ccc2c(c1)OCO2` [Example 10] yielded an IC50 of 16 nM.
Turning to `CCOC(=O)CCCSC[C@@H](C)C(=O)N[C@@H](Cc1ccccc1)[C@H](O)CN(CC(C)C)S(=O)(=O)c1ccc2c(c1)OCO2` [Example 11], on HIV protease, half-maximal inhibition (IC50) required 22 nM.
Regarding `CC(C)CN(C[C@@H](O)[C@H](Cc1ccccc1)NC(=O)[C@H](C)CS(=O)(=O)Cc1c[nH]cn1)S(=O)(=O)c1ccc2c(c1)OCO2` [Example 12], in the assay with HIV-1, the concentration giving a half-maximal response (EC50) stood at 187 nM. Also, on HIV protease, the IC50 was 7 nM.
As to `CC(C)CN(C[C@@H](O)[C@H](Cc1ccccc1)NC(=O)[C@H](C)CS(=O)(=O)Cc1cc[nH]n1)S(=O)(=O)c1ccc2c(c1)OCO2` [Example 13], in the assay with HIV-1, the EC50 came to 71 nM. Further, the IC50 against HIV protease was determined as 5 nM.
In the assay with HIV-1, `CC(C)CN(C[C@@H](O)[C@H](Cc1ccccc1)NC(=O)[C@H](C)CS(=O)(=O)Cc1cn[nH]c1)S(=O)(=O)c1ccc2c(c1)OCO2` [Example 14] came in with an EC50 of 81 nM. The same compound yielded an IC50 at HIV protease of 4 nM.
Turning to `CC(C)CN(C[C@@H](O)[C@H](Cc1ccccc1)NC(=O)[C@H](C)CS(=O)(=O)Cc1nc2ccccc2[nH]1)S(=O)(=O)c1ccc2c(c1)OCO2` [Example 15], the concentration giving a half-maximal response (EC50) in the assay with HIV-1 came out at 47 nM. For the same compound, it took 3 nM to reach half-maximal inhibition against HIV protease (IC50).
In the case of `CC(C)CN(C[C@@H](O)[C@H](Cc1ccccc1)NC(=O)[C@H](C)CS(=O)(=O)Cc1cncs1)S(=O)(=O)c1ccc2c(c1)OCO2` [Example 16], in the assay with HIV-1, it took 21 nM to reach a half-maximal effect (EC50). Besides, on HIV protease, the IC50 stood at 4 nM.
`CC(C)CN(C[C@@H](O)[C@H](Cc1ccccc1)NC(=O)[C@H](C)CS(=O)(=O)C[C@H]1CCCN1)S(=O)(=O)c1ccc2c(c1)OCO2` [Example 17]: the EC50 in the assay on HIV-1 stood at 160 nM. For the same compound, the IC50 on HIV protease is 4 nM.
On to `CC(C)CN(C[C@@H](O)[C@H](Cc1ccccc1)NC(=O)[C@H](C)CS(=O)(=O)C[C@@H]1CCCN1)S(=O)(=O)c1ccc2c(c1)OCO2` [Example 18], for which half-maximal inhibition at HIV protease (IC50) required 6 nM.
In the assay with HIV-1, `CC(C)CN(C[C@@H](O)[C@H](Cc1ccccc1)NC(=O)[C@H](C)CS(=O)(=O)c1ccccn1)S(=O)(=O)c1ccc2c(c1)OCO2` [Example 19] displayed an EC50 of 174 nM. In addition, on HIV protease, the IC50 was determined as 11 nM.
As for `CC(C)CN(C[C@@H](O)[C@H](Cc1ccccc1)NC(=O)[C@H](C)CS(=O)(=O)CC(CO)CO)S(=O)(=O)c1ccc2c(c1)OCO2` [Example 20], it took 4 nM to reach half-maximal inhibition against HIV protease (IC50).
At HIV protease, `COC1O[C@H](CS(=O)(=O)C[C@@H](C)C(=O)N[C@@H](Cc2ccccc2)[C@H](O)CN(CC(C)C)S(=O)(=O)c2ccc3c(c2)OCO3)[C@@H](O)[C@H]1O` (some centres unmarked) [Example 21] had an IC50 of 9 nM.
Same read-out and setting: with `CC(C)CN(C[C@@H](O)[C@H](Cc1ccccc1)NC(=O)[C@H](C)CSCC(=O)N1CCOCC1)S(=O)(=O)c1ccc2c(c1)OCO2` [Example 22] the figure was 63 nM.
Take `CC(C)CN(C[C@@H](O)[C@H](Cc1ccccc1)NC(=O)[C@H](C)CSCC(=O)N1CCN(C(=O)OC(C)(C)C)CC1)S(=O)(=O)c1ccc2c(c1)OCO2` [Example 23]: the IC50 against HIV protease turned out to be 12 nM.
Take `CC(C)CN(C[C@@H](O)[C@H](Cc1ccccc1)NC(=O)[C@H](C)CSCC(=O)N1CCSCC1)S(=O)(=O)c1ccc2c(c1)OCO2` [Example 24]: the IC50 at HIV protease was determined as 25 nM.
In the case of `CC(C)CN(C[C@@H](O)[C@H](Cc1ccccc1)NC(=O)[C@H](C)CS(=O)(=O)C[C@H]1CCCN1C(=O)OCc1ccccc1)S(=O)(=O)c1ccc2c(c1)OCO2` [Example 25], the EC50 with HIV-1 came to 43 nM. Besides, it took 6 nM to reach half-maximal inhibition on HIV protease (IC50).
Compound `CC(C)CN(C[C@@H](O)[C@H](Cc1ccccc1)NC(=O)[C@H](C)CSCCC(=O)N1CCN(C(=O)OC(C)(C)C)CC1)S(=O)(=O)c1ccc2c(c1)OCO2` [Example 26] registered an IC50 on HIV protease of 16 nM.
Compound `CC(C)CN(C[C@@H](O)[C@H](Cc1ccccc1)NC(=O)[C@H](C)CSCC(=O)NCCN1CCCC1)S(=O)(=O)c1ccc2c(c1)OCO2` [Example 27] registered an IC50 at HIV protease of 75 nM.

The term EC50 denotes the concentration at which the effect is half-maximal. The IC50 is the concentration at which inhibition is half-maximal. Low readings indicate greater potency, high ones weaker potency.
